pIC50, pKi: −log10 of the molar value.
Columns and labels:
[1] = target: T1, AMPKα1 (recombinant AMPKα1β1γ1) (Homo sapiens, UniProt Q13131); test: radiometric in vitro kinase assay with SAMS peptide and […]-ATP; Lineweaver-Burk; IC50 […]; type: biochemical
T1 construct: gene PRKAA1; recombinant AMPKα1β1γ1 heterotrimer (#P47-10H, SignalChem); with AMPKβ1, AMPKγ1

[2] = target: T2, AMPKα2 (recombinant AMPKα2β1γ1) (Homo sapiens, UniProt P54619+P54646+Q9Y478); test: radiometric in vitro kinase assay with SAMS peptide and […]-ATP; type: biochemical
T2 construct: gene PRKAA2; recombinant AMPKα2β1γ1 heterotrimer (#P48-10H, SignalChem); with AMPKβ1, AMPKγ1
T2 sequence (P54646 whole entry): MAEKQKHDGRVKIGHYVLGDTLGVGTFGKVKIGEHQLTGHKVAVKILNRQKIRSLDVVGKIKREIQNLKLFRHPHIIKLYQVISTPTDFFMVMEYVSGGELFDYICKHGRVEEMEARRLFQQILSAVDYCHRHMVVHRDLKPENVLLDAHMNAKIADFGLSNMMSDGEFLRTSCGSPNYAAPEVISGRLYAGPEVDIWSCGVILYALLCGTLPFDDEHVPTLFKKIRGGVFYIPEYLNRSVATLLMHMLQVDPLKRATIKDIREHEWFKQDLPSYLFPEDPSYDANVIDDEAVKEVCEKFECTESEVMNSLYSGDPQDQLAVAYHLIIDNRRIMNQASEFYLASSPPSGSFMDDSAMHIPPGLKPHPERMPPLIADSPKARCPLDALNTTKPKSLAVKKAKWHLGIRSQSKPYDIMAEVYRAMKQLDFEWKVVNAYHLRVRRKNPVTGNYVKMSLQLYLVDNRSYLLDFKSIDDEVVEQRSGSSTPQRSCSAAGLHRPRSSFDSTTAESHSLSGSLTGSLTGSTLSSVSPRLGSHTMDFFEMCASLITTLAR
T2 sequence (Q9Y478 2-270 partner): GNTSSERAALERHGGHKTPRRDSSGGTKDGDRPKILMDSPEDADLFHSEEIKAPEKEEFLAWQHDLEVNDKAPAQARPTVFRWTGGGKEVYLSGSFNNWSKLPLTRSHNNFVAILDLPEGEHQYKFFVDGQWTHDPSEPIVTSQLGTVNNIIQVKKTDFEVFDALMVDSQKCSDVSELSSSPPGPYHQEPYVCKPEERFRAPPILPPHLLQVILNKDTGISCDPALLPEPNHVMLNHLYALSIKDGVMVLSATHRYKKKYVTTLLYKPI
T2 sequence (P54619 whole entry partner): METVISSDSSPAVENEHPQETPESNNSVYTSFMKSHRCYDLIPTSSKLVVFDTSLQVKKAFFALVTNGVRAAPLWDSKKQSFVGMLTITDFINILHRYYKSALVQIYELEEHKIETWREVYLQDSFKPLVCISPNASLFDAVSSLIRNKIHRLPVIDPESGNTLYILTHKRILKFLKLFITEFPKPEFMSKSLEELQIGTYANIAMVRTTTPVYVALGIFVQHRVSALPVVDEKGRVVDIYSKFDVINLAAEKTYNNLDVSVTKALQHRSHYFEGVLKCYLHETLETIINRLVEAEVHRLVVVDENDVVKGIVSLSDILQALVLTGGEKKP

T1 sequence (Q13131 whole entry): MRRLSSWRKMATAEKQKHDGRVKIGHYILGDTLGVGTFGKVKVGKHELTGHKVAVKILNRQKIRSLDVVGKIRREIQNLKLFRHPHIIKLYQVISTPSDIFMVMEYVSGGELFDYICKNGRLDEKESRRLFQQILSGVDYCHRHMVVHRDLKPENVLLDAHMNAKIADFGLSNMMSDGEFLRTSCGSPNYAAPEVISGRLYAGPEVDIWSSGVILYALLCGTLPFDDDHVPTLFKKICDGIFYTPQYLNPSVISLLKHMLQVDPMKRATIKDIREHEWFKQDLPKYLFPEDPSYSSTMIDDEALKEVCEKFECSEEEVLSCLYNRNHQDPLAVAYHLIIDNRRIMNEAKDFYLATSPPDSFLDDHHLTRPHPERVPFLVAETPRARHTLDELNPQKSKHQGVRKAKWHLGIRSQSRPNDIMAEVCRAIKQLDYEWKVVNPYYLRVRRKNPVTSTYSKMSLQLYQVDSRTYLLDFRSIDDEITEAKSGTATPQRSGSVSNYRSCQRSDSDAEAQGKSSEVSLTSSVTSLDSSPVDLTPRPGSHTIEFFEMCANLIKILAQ
T1 sequence (Q9Y478 2-270 partner): as the sequence (Q9Y478 2-270 partner) above
T1 sequence (P54619 whole entry partner): as the sequence (P54619 whole entry partner) above

CN[C@@H]1C(O)[C@H]2O[C@@](C)([C@@H]1OC)n1c3ccccc3c3c4c(c5c6ccccc6n2c5c31)C(=O)NC4 (some centres unmarked) [5-OH-S, 5′-hydroxy-staurosporine]
pKi [1]: 6.46
pIC50 [2]: 6.23
